Data reported in article PMC11106541, “Library screening identifies commercial drugs as potential structure correctors of abnormal apolipoprotein A-I” (Journal of Lipid Research, 2024).
Read-outs that look alike come from different tables or passages of the source.

How the values were obtained:
apoA-I[L178P] [1] = molecular target: T1, apoA-I[L178P] (Homo sapiens, UniProt P02647, L202P); test: ITC (also Tm shift by CD thermal denaturation, EC50 […]; TSA; ANS); assay type: binding
T1 construct: gene APOA1; recombinant lipid-free apoA-I (243 residues) expressed in E. coli, thioredoxin/His tag removed with 3C protease

apoA-I[L178P] [2] = molecular target: T1, apoA-I[L178P]; test: as above; assay type: binding; remark: listed apart in the source

T1 sequence (P02647 25-267 L202P): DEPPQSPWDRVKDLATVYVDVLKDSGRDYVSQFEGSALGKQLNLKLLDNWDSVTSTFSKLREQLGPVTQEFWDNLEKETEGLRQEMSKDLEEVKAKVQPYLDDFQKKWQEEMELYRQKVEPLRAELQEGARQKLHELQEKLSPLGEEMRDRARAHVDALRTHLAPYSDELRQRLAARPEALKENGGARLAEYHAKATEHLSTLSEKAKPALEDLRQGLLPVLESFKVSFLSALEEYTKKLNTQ

Structure (SMILES): CC(C)c1c(C(=O)Nc2ccccc2)c(-c2ccccc2)c(-c2ccc(F)cc2)n1CC[C@@H](O)C[C@@H](O)CC(=O)O [C8, atorvastatin]
- EC50 (apoA-I[L178P] [1]): 400 µM

Structure (SMILES): C=C(c1ccc(C(=O)O)cc1)c1cc2c(cc1C)C(C)(C)CCC2(C)C [C9-p1, bexarotene]
- EC50 (apoA-I[L178P] [2]): 98 µM
